“And” between values parts separate entries of the source, which are not always exact repeats. Equal entries are not always repeated. “Also recorded” adds a separate entry of the source.
How the values were obtained:
Experiment in all cases: Phenotypic susceptibility assay (site directed mutant RTV)
Assay type in all cases: cell-based, HIV-1
G190S-RTV = conditions: for change in susceptibility (fold, IC50) vs wild type control RTV: G190S alone, below 1 = increased susceptibility; for change in susceptibility: serine at position 190, no other NNRTI mutations
From the text: (§1) The resistance test vectors containing a functional luciferase gene cassette were constructed and host cells were transfected with the resistance test vector DNA. The resistant test vectors contained patient-derived reverse transcriptase and protease sequences that were either susceptible or resistant to the antiretroviral agents, such as nucleoside reverse transcriptase inhibitors, non-nucleoside reverse transcriptase inhibitors and protease inhibitors. The resistance test vector viral particles produced by transfecting the resistance test vector DNA into host cells, either in the presence or absence of protease inhibitors, were used to infect target host cells grown either in the absence of NRTI or NNRTI or in the presence of increasing concentrations of the drug. The amount of luciferase activity produced in infected target host cells in the presence of drug was compared to the amount of luciferase produced in infected target host cells in the absence of drug. Drug resistance was measured as the amount of drug required to inhibit by 50% the luciferase activity detected in the absence of drug (inhibitory concentration 50%, IC50). The IC50 values were determined by plotting percent drug inhibition vs. log10 drug concentration.
(§2) Host cells were seeded in 10-cm-diameter dishes and were transfected several days after plating with resistance test vector plasmid DNA and the envelope expression vector. Transfections were performed using a calcium-phosphate precipitation procedure. The cell culture media containing the DNA precipitate was replaced with fresh medium, from one to 24 hours, after transfection. Cell culture media containing resistance test vector viral particles was harvested one to four days after transfection and was passed through a […] filter before being stored at […]. HIV capsid protein (p24) levels in the harvested cell culture media were determined by an EIA method as described by the manufacturer (SIAC; Frederick, Md.). Before infection, target cells (293 and 293/T) were plated in cell culture media. Control infections were performed using cell culture media from mock transfections (no DNA) or transfections containing the resistance test vector plasmid DNA without the envelope expression plasmid. One to three or more days after infection the media was removed and cell lysis buffer (Promega) was added to each well. Cell lysates were assayed for luciferase activity (FIG. 3). The inhibitory effect of the drug was determined using the following equation: % luciferase inhibition=1−(RLUluc [drug]÷RLUluc)×100 where RLUluc [drug] is the relative light unit of luciferase activity in infected cells in the presence of drug and RLUluc is the Relative Light Unit of luciferase activity in infected cells in the absence of drug. IC50 values were obtained from the sigmoidal curves that were generated from the data by plotting the percent inhibition of luciferase activity vs. the log10 drug concentration. The drug inhibition curves are shown in (FIG. 3).
Resistance test vectors were constructed containing the G190S and G190A mutations. Mutations were introduced into the resistance test vector using the mega-primer PCR method for site-directed mutagenesis (Sakar and Sommar, Ibid.) Resistance test vectors containing the G190S or G190A mutations (G190S-RTV, or G190A-RTV) were tested using the phenotypic susceptibility assay and the results were compared to that of a genetically defined resistance test vector that was wild type at position G190. […]

G190A-RTV = conditions: for change in susceptibility: alanine at position 190, no other NNRTI mutations
From the text: as §1
as §2, with “IC50 values were obtained from the sigmoidal curves that were generated from the data by plotting the percent inhibition of luciferase activity vs. the log10 drug concentration. The drug inhibition curves are shown in (FIG. 3).” left out

Y188L-RTV = conditions: for loss of susceptibility (fold, IC50) vs wild type control RTV: Y188L alone; for change in susceptibility: mutation at codon 188
From the text: as §1, §2
The Y188L mutation was introduced into the resistance test vector using the mega-primer method for site-directed mutagenesis (Sakar and Sommar, Ibid.). A resistance test vector containing the Y188L mutation (Y188L-RTV) was then tested using the phenotypic assay described earlier and the results were compared to those determined using a genetically defined resistance test vector that was wild type at position 188. We determined the pattern of phenotypic susceptibility to the NNRTIs, delavirdine, nevirapine and efavirenz, in the Y188L-RTV. […] The approximate 100-fold loss of susceptibility to efavirenz was not as high as had been previously reported.

Y188C-RTV = conditions: Y188C alone
From the text: as §1, with “Drug resistance was measured as the amount of drug required to inhibit by 50% the luciferase activity detected in the absence of drug (inhibitory concentration 50%, IC50).” left out
Host cells were seeded in 10-cm-diameter dishes and were transfected several days after plating with resistance test vector plasmid DNA and the envelope expression vector. […] HIV capsid protein (p24) levels in the harvested cell culture media were determined by an EIA method as described by the manufacturer (SIAC; Frederick, Md.). […] The inhibitory effect of the drug was determined using the following equation: % luciferase inhibition=1−(RLUluc [drug]÷RLUluc)×100 where RLUluc [drug] is the relative light unit of luciferase activity in infected cells in the presence of drug and RLUluc is the Relative Light Unit of luciferase activity in infected cells in the absence of drug. […]
The Y188C mutation was introduced into the resistance test vector using the mega-primer method for site-directed mutagenesis (Sakar and Sommar, Ibid.). […] We determined the pattern of phenotypic susceptibility to the NNRTIs., delavirdine, nevirapine and efavirenz, in the Y188C-RTV.

E138A-RTV = conditions: E138A alone
From the text: as §1, §2
(§3) The E138A mutation alone and in combination with Y188L was introduced into resistance test vectors using the mega-primer method for site-directed mutagenesis (Sakar and Sommar, Ibid.). Resistance rest vectors containing the E138A mutation (E138A-RTV) or he E138 mutation along with the […] mutation (E138A-Y188L-RTV) were then tested using the phenotypic assay described earlier and the results were compared to those determined using a genetically defined resistance test vector that was wild type at positions 188 and 138. We determined the pattern of phenotypic susceptibility to the NNRTIs, delavirdine, nevirapine and efavirenz, in the E138A-RTV, Y188L-RTV and E138-Y188L-RTV.

E138A-Y188L-RTV = conditions: for loss of susceptibility (fold, IC50) vs wild type control RTV: E138A and Y188L; for change in susceptibility: mutations at codons 138 and 188
From the text: as §1, §2, §3

A98G-G190S-RTV = conditions: for change in susceptibility (fold, IC50) vs wild type control RTV: A98G and G190S, below 1 = increased susceptibility; for change in susceptibility: mutations at codons 98 and 190
From the text: as §1, §2
The A98 and G190S mutations were introduced alone or in combination into the resistance test vector using the mega-primer method for site-directed mutagenesis (Sakar and Sommar, Ibid.). Resistance test vectors containing the A98G mutation (A98G-RTV), the G190S mutation (G190S-RTV) and both mutations (A98G-G190S-RTV) were then tested using the phenotypic assay described earlier and the results were compared to those determined using a genetically defined resistance test vector that was wild type at position 98 and 190. We determined the pattern of phenotypic susceptibility to the NNRTIs, delavirdine, nevirapine and efavirenz, in the three vectors.

| Structure (SMILES) | change in susceptibility (fold, IC50) vs wild type control RTV (G190S-RTV) | change in susceptibility (G190S-RTV) | change in susceptibility (G190A-RTV) | change in susceptibility (G190A-RTV; listed as delviridine) | loss of susceptibility (fold, IC50) vs wild type control RTV (Y188L-RTV) | change in susceptibility (Y188L-RTV) | loss of susceptibility (fold, IC50) vs wild type control RTV (Y188C-RTV) | change in susceptibility (fold, IC50) vs wild type control RTV (E138A-RTV) | loss of susceptibility (fold, IC50) vs wild type control RTV (E138A-Y188L-RTV) | change in susceptibility (E138A-Y188L-RTV) | change in susceptibility (fold, IC50) vs wild type control RTV (A98G-G190S-RTV) | change in susceptibility (A98G-G190S-RTV) | change in susceptibility (fold, IC50) vs wild type control RTV (G190A-RTV; G190A alone) |
| --- | --- | --- | --- | --- | --- | --- | --- | --- | --- | --- | --- | --- | --- |
| CC(C)Nc1cccnc1N1CCN(C(=O)c2cc3cc(NS(C)(=O)=O)ccc3[nH]2)CC1 [delavirdine] | 0.5 fold | increase | increase | increased susceptibility | 9 fold | slight decrease | 3 fold | 1.6 fold | 75 fold | moderate decrease | 0.8 fold | increase |  |
| O=C1Nc2ccc(Cl)cc2[C@@](C#CC2CC2)(C(F)(F)F)O1 [efavirenz] | 8 fold and 7.6 fold |  |  |  | 109 fold and ~100 fold and 110 fold | significant decrease | 20 fold | 1.4 fold | 88 fold | moderate decrese; also recorded: moderate decrease | greater than 250 fold | substantial decrease | 8 fold |
| Cc1ccnc2c1NC(=O)c1cccnc1N2C1CC1 [nevirapine] | 75 fold | decrease | decrease |  | greater than 800 fold | substantial decrease | 30 fold | 1.3 fold | greater than 800 fold | substantial decrease | greater than 800 fold | substantial decrease |  |
